Measured values as given in patent US20220257764A1, “USE OF DIKETONE COMPOUND IN PHOTODYNAMIC THERAPY OR DIAGNOSIS” (BEIJING WHOLESOMETECH CO., LTD., priority 2019, published 2022).
Like-named read-outs stand apart in the source and are kept apart here.

Key:
[1] = test system: human immortalized keratinocyte (Hacat cells); assay: MTT cytotoxicity to normal cells, Experimental Example 5; assay type: cell-based
Method: (§1) (1) Logarithmic phase cells were collected, the concentration of a cell suspension was adjusted, the cell suspension was added to a cell culture plate in a dose of 100 μL per well, and the cells were then added to a cell culture plate so that the density of the cells to be tested was adjusted to 1000-10000 wells (edge wells were filled with sterile PBS). […] Generally, the drug in 5 to 7 gradients was added in a dose of 100 μL per well, and 3 to 5 wells were set for each concentration of a drug. […] Cells in the experimental photosensitizer-light irradiation group were incubated for 15 min and then irradiated with light. […] After light irradiation, the cells were washed with PBS. […] After light irradiation, the cells were washed with PBS. […] If the drug could react with the MTT, centrifuging was carried out first, and then the culture solution was discarded and the cells were carefully washed twice or three times with PBS, and then the culture solution containing MTT was added. (6) The culture was terminated and the culture solution in the wells was carefully removed. (7) Dimethyl sulfoxide was added in a dose of 150 μL per well, and the plate was then shaken on a shaker at a low speed for 10 min to fully dissolve crystals. The absorbance at OD 490 nm of each well was measured with enzyme-linked immunoassay. […]

[2] = test system: human cervical cancer Hela cells; assay: MTT cytotoxicity, Experimental Example 5; assay type: cell-based
Method: as §1

[3] = Blood routine and blood biochemical indicators of tumor-bearing mice after 2 weeks of treatment; assay type: in vivo, BALB/C mice; design: Mean corpuscular hemoglobin (MCH) / Mean corpuscular volume (MCV) / Red blood cell volume distribution width (RDW) / Hematocrit (HCT) / Hemoglobin (HGB): unit not given here; settings: for Hematocrit (HCT) / Hemoglobin (HGB) / Mean corpuscular hemoglobin (MCH) / Mean corpuscular hemoglobin concentration (MCHC) / Mean corpuscular volume (MCV) / Mean platelet volume (MPV) / Platelet count (PLT) / Platelet distribution width (PDW) / Plateletocrit (PCT) / Red blood cell volume distribution width (RDW) / Red blood count (RBC) / White blood cell count (WBC): after 2 weeks
Method: 1. Photodynamic therapy experiments on tumors were carried out by using BJMU-204 as a photosensitizer and BALB/C mice as experimental animals.
Modeling mode: BALB/C mice were divided into 5 groups in total, 11-12 mice in each group. 4T1 cells (breast cancer cells in mice) were resuscitated and subcultured to a better cell state for tumorigenesis inoculation. BALB/C mice were locally depilated and disinfected, and tumor cells were injected into the mouse mammary fat pad in situ. Tumors were formed within 7 to 10 days.
Administration time: drug intervention was given to mice after tumor formation, and photodynamic therapy was given by intratumoral injection every other day under the irradiation of laser with a wavelength of 450 nm to 480 nm at a light intensity of 200 mW/cm^2.
Administration mode: as shown in the table below, the photosensitizer was dissolved in physiological saline and injected in mice in groups 1-3 intratumorally, and the groups receiving photodynamic therapy were irradiated with light immediately after the injection.
2. Mice in each experimental group were subjected to blood collection for serum separation and necropsy, and tumors were taken out and measured to obtain their wet weights; tumor tissues were fixed, pathological examinations were performed, and H. E. staining was used to observe the changes of tumors of the mice under an optical microscope; blood routine indicators (including white blood cell count (WBC), red blood cell count (RBC), lymphocyte count (LY), platelet count (PLT) and many other blood routine indicators) and blood biochemical indicators (including routine blood biochemical indicators) were tested and analyzed in the Laboratory of Peking University Third Hospital.

[4] = test system: Escherichia coli; assay: Inhibitory effect on bacteria (colony counting), under light and in the dark; assay type: cell-based; settings: 60 mM
Method: A single Escherichia coli colony was transferred from a solid Luria Bertani (LB) agar plate to 5 ml liquid LB medium and incubated at 37° C. for 12 h. Bacteria were collected by centrifugation (7000 rpm, 1 min) and washed with PBS buffer three times. The supernatant was discarded, and the remaining Escherichia coli cells were resuspended in the PBS buffer. The bacterial suspension was adjusted to make its optical density (OD600) to 1.0. The suspension was then diluted (5 times) with PBS buffer. The diluted Escherichia coli cell suspension was incubated in the dark at 37° C. for 15 min in the presence of a photosensitizer (diketone compound) solution with a concentration of 60 mM, and then irradiated for 200 s under a 15 mW/cm^2 laser light (with a wavelength of 450 nm to 480 nm and in the final light dose of about 3 J cm^2), and after the irradiation the bacterial suspension was serially diluted (10^4 times) with PBS buffer. 100 μL of the diluted bacterial Escherichia coli cell was dispersed on a solid LB agar plate and incubated at 37° C. for 12 h to 16 h, and colonies formed were counted. In the meanwhile, a treated group in the dark and an untreated group in the dark were set; the inhibition rate was determined by dividing the number of colony forming units (cfu) killed in the treated group under light or the treated group in the dark by the number of colony forming units (cfu) killed in the untreated group in the dark.

[5] = Control group-1: intratumoral injection 3%, no light
[6] = High-concentration (3%) intratumoral injection + light 10 min
[7] = Low-concentration (0.5%) intratumoral injection + light 10 min

CC(=O)C(C)=O [BJMU-204]
cytotoxicity to Hacat cells [1]: relatively low cytotoxicity
cytotoxicity to Hela cells ([2]; given in the dark): relatively low cytotoxicity
cytotoxicity to Hela cells ([2]; given under blue light, 450-480 nm, 110 mW/cm^2, 900 s): relatively high cytotoxicity
Hematocrit (HCT) [3, 5]: 28.8 ± 5.76
Hemoglobin (HGB) [3, 5]: 117 ± 26.64
Mean corpuscular hemoglobin (MCH) [3, 5]: 18.43 ± 0.67
Mean corpuscular hemoglobin concentration (MCHC) [3, 5]: 404.5 ± 26.01
Mean corpuscular volume (MCV) [3, 5]: 45.65 ± 1.35
Mean platelet volume (MPV) [3, 5]: 6.1 ± 0
Platelet count (PLT) [3, 5]: 312 ± 125.04
Platelet distribution width (PDW) [3, 5]: 16.2 ± 0
Plateletocrit (PCT) [3, 5]: 0.24 ± 0
Red blood cell volume distribution width (RDW) [3, 5]: 14.18 ± 0.75
Red blood count (RBC) [3, 5]: 6.33 ± 1.36
White blood cell count (WBC) [3, 5]: 352.8 ± 45.95
Hematocrit (HCT) [3, 6]: 32.4 ± 12.48
Hemoglobin (HGB) [3, 6]: 123 ± 40.8
Mean corpuscular hemoglobin (MCH) [3, 6]: 18.43 ± 1.93
Mean corpuscular hemoglobin concentration (MCHC) [3, 6]: 387.5 ± 40.38
Mean corpuscular volume (MCV) [3, 6]: 47.5 ± 1.95
Mean platelet volume (MPV) [3, 6]: 6.63 ± 0.76
Platelet count (PLT) [3, 6]: 267 ± 167.28
Platelet distribution width (PDW) [3, 6]: 15.13 ± 0.76
Plateletocrit (PCT) [3, 6]: 0.24 ± 0.12
Red blood cell volume distribution width (RDW) [3, 6]: 14.58 ± 0.84
Red blood count (RBC) [3, 6]: 6.81 ± 2.51
White blood cell count (WBC) [3, 6]: 136.8 ± 31.45
Hematocrit (HCT) [3, 7]: 32.64 ± 12.12
Hemoglobin (HGB) [3, 7]: 141.6 ± 42.72
Mean corpuscular hemoglobin (MCH) [3, 7]: 20.1 ± 1.84
Mean corpuscular hemoglobin concentration (MCHC) [3, 7]: 447 ± 48.54
Mean corpuscular volume (MCV) [3, 7]: 45.04 ± 1.21
Mean platelet volume (MPV) [3, 7]: 6.23 ± 0.61
Platelet count (PLT) [3, 7]: 494.4 ± 387.6
Platelet distribution width (PDW) [3, 7]: 13.37 ± 1.47
Plateletocrit (PCT) [3, 7]: 0.48 ± 0.24
Red blood cell volume distribution width (RDW) [3, 7]: 13.78 ± 0.59
Red blood count (RBC) [3, 7]: 7.22 ± 2.62
White blood cell count (WBC) [3, 7]: 193.5 ± 70
number of platelets and white blood cells in the blood ([3]; treated groups vs control groups (p<0.001), after 2 weeks of treatment): decreases
liver, kidney and blood toxicity ([3]; tumor-bearing mice, continuous treatment for 14 days at high or low concentration therapeutic doses): will not cause liver, kidney and blood toxicity
inhibition at 60000 µM ([4]; 450-480 nm laser, 15 mW/cm^2, 200 s, read-out: Inhibition rate under light): 96%
inhibition at 60000 µM ([4]; in the dark, read-out: Inhibition rate in the dark): 10.3%
